Assay results reported in paper PMC11240878, “Synthesis, enzyme inhibition assay, and molecular modeling study of novel pyrazolines linked to 4-methylsulfonylphenyl scaffold: antitumor activity and cell cycle analysis” (RSC Advances, 2024).

Experiments:
Bax in MDA-MB-231 cells = assay: Apoptotic markers assay, Bax; type: cell-based, human; settings: at IC50 concentration, vs untreated control
Experimental: (§1) The levels of Bax (apoptosis promoter), Bcl-2 (apoptosis inhibitor), and apoptosis coordination enzymes (caspase-3 and caspase-9) were measured.[78–80]
(§2) Apoptotic markers experiment was performed according to reported procedure using MDA-MB-231 cancer cell line.[78–80]

U251 = assay: NCI single-dose GI%, CNS; type: cell-based, human; settings: 10.0 μM in one dose
HER2 = HER2 (Homo sapiens, UniProt P04626); assay: HER2 tyrosine kinase inhibition assay
Sequence of HER2 (P04626 23-1255): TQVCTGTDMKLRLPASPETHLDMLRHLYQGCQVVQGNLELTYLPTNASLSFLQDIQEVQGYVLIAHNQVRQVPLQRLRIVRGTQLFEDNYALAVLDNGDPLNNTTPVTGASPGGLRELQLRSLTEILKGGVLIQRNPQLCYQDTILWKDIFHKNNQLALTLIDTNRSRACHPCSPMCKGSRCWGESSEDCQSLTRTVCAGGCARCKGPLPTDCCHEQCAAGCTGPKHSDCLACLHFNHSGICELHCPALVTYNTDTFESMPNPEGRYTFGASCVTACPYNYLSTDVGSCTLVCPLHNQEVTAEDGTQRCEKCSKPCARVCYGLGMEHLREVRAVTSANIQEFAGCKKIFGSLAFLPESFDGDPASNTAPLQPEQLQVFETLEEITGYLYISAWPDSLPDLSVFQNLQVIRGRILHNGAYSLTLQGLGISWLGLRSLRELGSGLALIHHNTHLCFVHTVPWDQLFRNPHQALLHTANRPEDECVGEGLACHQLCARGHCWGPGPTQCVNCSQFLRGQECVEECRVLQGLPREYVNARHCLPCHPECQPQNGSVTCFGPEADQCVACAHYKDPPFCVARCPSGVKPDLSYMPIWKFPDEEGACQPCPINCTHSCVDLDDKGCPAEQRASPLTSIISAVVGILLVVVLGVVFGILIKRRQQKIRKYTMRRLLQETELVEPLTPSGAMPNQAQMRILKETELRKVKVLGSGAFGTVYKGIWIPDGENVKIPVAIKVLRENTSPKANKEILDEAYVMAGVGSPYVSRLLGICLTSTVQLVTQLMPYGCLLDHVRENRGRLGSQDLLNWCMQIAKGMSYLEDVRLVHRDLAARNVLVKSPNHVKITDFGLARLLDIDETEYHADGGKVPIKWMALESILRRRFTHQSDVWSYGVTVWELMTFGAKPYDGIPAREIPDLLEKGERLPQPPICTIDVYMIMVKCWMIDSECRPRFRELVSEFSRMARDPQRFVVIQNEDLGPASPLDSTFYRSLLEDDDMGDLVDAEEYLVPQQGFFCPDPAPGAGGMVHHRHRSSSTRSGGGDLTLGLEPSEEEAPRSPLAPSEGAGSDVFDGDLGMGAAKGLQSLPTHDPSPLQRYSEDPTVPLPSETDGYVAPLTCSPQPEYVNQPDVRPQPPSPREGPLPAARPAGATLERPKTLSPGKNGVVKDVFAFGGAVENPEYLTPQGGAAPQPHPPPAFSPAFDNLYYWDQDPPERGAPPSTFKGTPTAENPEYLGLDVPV

[1] = test system: caspase-9 in MDA-MB-231 cells; assay: Apoptotic markers assay, caspase-9; type: cell-based, human; settings: at IC50 concentration, vs untreated control
Experimental: as §1, §2

MDA-MB-231 = assay: cells; settings: Homo sapiens, MDA-MB-231, 48 h, read-out: In vitro cytotoxicity IC50
Experimental: (§3) The antitumor experiment was conducted on 59 human tumor cell lines derived from nine different human tissues, following the procedure of the Drug Evaluation Branch at the NCI, Bethesda, MD.[33]

leukemia HL-60 = assay: cells; settings: Homo sapiens, HL-60, 48 h, read-out: In vitro cytotoxicity IC50
Experimental: as §3

MOLT-4 = assay: NCI single-dose GI%, leukemia; type: cell-based, human; settings: MOLT-4, leukemia; 10.0 μM in one dose
HL-60(TB) = assay: NCI single-dose GI%, leukemia; type: cell-based, human; settings: 10.0 μM in one dose
K-562 = assay: NCI single-dose GI%, leukemia; type: cell-based, human; settings: K-562, leukemia; 10.0 μM in one dose
CAKI-1 = assay: NCI single-dose GI%, renal; type: cell-based, human; settings: CAKI-1, renal; 10.0 μM in one dose
UACC-257 = assay: NCI single-dose GI%, melanoma; type: cell-based, human; settings: UACC-257, melanoma; 10.0 μM in one dose
HL-60 cells [2] = assay: Cell cycle analysis by flow cytometry; type: cell-based, human; settings: at IC50 concentration
Experimental: Flow cytometry measures cell growth in different cell cycle phases (G0–G1, S, G2/M and pre-G1).[33,77] This study aimed to find out how the target compounds affect the growth of cancer cells by examining at how they change the cell cycle and cause apoptosis in HL-60 cells.
The cell cycle analysis was conducted similarly to our prior study, using the leukemia HL-60 cell line. The cells were stained with the DNA fluorochrome PI and analyzed using a FACSCalibur flow cytometer.[33,77]

HL-60 cells [3] = assay: Annexin V-FITC/PI apoptosis assay; type: cell-based, human; settings: 24 h, at IC50 concentration
Text: Most anticancer agents kill cancer cells via an apoptosis induction mechanism.[33,77]
As per our earlier study, we induced apoptosis using the leukemia HL-60 cell line and a widely recognized Annexin 5-FITC/PI detection kit. The cell line samples were examined utilizing a FACSCalibur flow cytometer.[33,77]

HT29 = assay: NCI single-dose GI%, colon; type: cell-based, human; settings: 10.0 μM in one dose
MCF7 = assay: NCI single-dose GI%, breast; type: cell-based, human; settings: 10.0 μM in one dose
UO-31 = assay: NCI single-dose GI%, renal; type: cell-based, human; settings: UO-31, renal; 10.0 μM in one dose
[4] = test system: caspase-3 in MDA-MB-231 cells; assay: Apoptotic markers assay, caspase-3; type: cell-based, human; settings: at IC50 concentration, vs untreated control
Experimental: as §1, §2

NCI-H522 = assay: NCI single-dose GI%, NSC lung; type: cell-based, human; settings: 10.0 μM in one dose
59 cancer cell lines = assay: NCI 59 cancer cell line panel, single dose; type: cell-based, human; settings: 10 μM single dose; for MG% (mean growth percent): 59 cell lines; for Mean GI% Breast cancer: breast cancer subpanel; for Mean GI% Leukemia: leukemia subpanel
BT-549 = assay: NCI single-dose GI%, breast; type: cell-based, human; settings: BT-549, breast; 10.0 μM in one dose
EKVX = assay: NCI single-dose GI%, NSC lung; type: cell-based, human; settings: 10.0 μM in one dose
[5] = test system: Bcl-2 in MDA-MB-231 cells; assay: Apoptotic markers assay, Bcl-2; type: cell-based, human; settings: at IC50 concentration, vs untreated control
Experimental: as §1

HOP-62 = assay: NCI single-dose GI%, NSC lung; type: cell-based, human; settings: HOP-62, NSC lung; 10.0 μM in one dose
A549/ATCC = assay: NCI single-dose GI%, NSC lung; type: cell-based, human; settings: 10.0 μM in one dose
COX-2 = biological target: T1, COX-2 (Ovis aries, UniProt P79208); assay: Colorimetric COX-2 inhibition assay
T1 sequence (P79208 17-603): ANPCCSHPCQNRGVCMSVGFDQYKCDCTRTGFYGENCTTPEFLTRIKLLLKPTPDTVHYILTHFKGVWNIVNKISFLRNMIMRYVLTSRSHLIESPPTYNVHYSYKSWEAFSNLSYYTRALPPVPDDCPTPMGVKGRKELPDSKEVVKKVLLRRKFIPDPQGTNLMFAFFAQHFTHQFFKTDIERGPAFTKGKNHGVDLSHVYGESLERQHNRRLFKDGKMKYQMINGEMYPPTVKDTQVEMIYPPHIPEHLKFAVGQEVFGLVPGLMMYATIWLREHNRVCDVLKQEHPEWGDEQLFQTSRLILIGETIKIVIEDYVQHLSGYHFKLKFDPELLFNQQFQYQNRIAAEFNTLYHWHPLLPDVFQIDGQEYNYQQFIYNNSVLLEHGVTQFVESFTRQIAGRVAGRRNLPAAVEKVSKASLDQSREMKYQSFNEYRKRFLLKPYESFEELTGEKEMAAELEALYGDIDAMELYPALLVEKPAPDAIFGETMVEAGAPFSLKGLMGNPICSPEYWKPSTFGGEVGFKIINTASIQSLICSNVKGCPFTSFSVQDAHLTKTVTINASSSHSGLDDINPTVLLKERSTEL

[6] = test system: breast adenocarcinoma MCF-7; assay: cells; settings: Homo sapiens, MCF7, 48 h, read-out: In vitro cytotoxicity IC50, MCF-7; MTT, 48 h drug exposure; mean ± SD of three experiments
T-47D = assay: NCI single-dose GI%, breast; type: cell-based, human; settings: 10.0 μM in one dose

SMILES	Bax gene expression (fold change) (Bax in MDA-MB-231 cells)	GI% (U251) [%]	IC50 (HER2) [µM]	Casp9 gene expression (fold change) [1] [fold change]	IC50 (MDA-MB-231) [µM]	IC50 (leukemia HL-60) [µM]	GI% (MOLT-4) [%]	GI% (HL-60(TB)) [%]	GI% (K-562) [%]	GI% (CAKI-1) [%]	GI% (UACC-257) [%]	% G0–G1 (HL-60 cells [2]) [%]	% G2–M (HL-60 cells [2]) [%]	% Pre-G1 (HL-60 cells [2]) [%]	% S (HL-60 cells [2]) [%]	phase of cell cycle arrest (HL-60 cells [2])	Apoptosis Early (HL-60 cells [3]) [%]	Apoptosis Late (HL-60 cells [3]) [%]	Apoptosis Total (percentage of annexin V-FITC positive cells) (HL-60 cells [3]) [%]	Necrosis (HL-60 cells [3]) [%]	further results
CS(=O)(=O)c1ccc(C(=O)N2N=C(c3ccccc3)CC2c2ccccc2O)cc1 (stereo not drawn) [Compound 18h, (5-(2-Hydroxyphenyl)-3-phenyl-4,5-dihydro-1H-pyrazol-1-yl)(4-(methylsulfonyl)phenyl)methanone]	2.154	48	0.253 ± 0.008	2.799	7.18 ± 0.32	8.99 ± 0.4	62	73	55	33	39	53.27	17.07	10.77	29.66	S/G2 phase	6.18	3.34	10.77	1.25	GI% (HT29): 20%; GI% (MCF7): 22%; GI% (UO-31): 47%; Casp3 gene expression (fold change) [4]: 5.559 fold change; GI% (NCI-H522): 55%; PCE (positive cytotoxic effect: ratio of cell lines with growth inhibition >10% to total cell lines) (59 cancer cell lines): 51/59; MG% (mean growth percent) (59 cancer cell lines): 72.20%; Mean GI% Breast cancer (59 cancer cell lines): 24%; Mean GI% Leukemia (59 cancer cell lines): 46%; GI% (BT-549): 19%; GI% (EKVX): 41%; Bcl2 gene expression (fold change) [5]: 0.423 fold change; GI% (HOP-62): 47%; GI% (A549/ATCC): 45%; IC50 (COX-2): 19.3 ± 0.72 µM; IC50 [6]: 12.4 µM; GI% (T-47D): 30%
CS(=O)(=O)c1ccc(C(=O)N2N=C(c3ccccc3)CC2c2ccc(F)cc2)cc1 (stereo not drawn) [Compound 18c, (5-(4-Fluorophenyl)-3-phenyl-4,5-dihydro-1H-pyrazol-1-yl)(4-(methylsulfonyl)phenyl)methanone]	4.413	12	1.43 ± 0.047	5.158	12.5 ± 0.56	8.43 ± 1.7	39	46	33	22	32	51.19	17.53	8.07	31.28	S/G2 phase	2.91	4.4	8.06	0.76	GI% (HT29): 19%; GI% (MCF7): 11%; GI% (UO-31): 20%; Casp3 gene expression (fold change) [4]: 7.453 fold change; GI% (NCI-H522): 48%; PCE (positive cytotoxic effect: ratio of cell lines with growth inhibition >10% to total cell lines) (59 cancer cell lines): 21/59; MG% (mean growth percent) (59 cancer cell lines): 90.58%; Mean GI% Breast cancer (59 cancer cell lines): 16%; Mean GI% Leukemia (59 cancer cell lines): 35%; GI% (BT-549): 14%; GI% (EKVX): 15%; Bcl2 gene expression (fold change) [5]: 0.184 fold change; GI% (HOP-62): 26%; GI% (A549/ATCC): 32%; IC50 (COX-2): 127 ± 8.23 µM; IC50 [6]: 16.2 ± 0.72 µM; GI% (T-47D): 24%
Cc1ccc(C2=NN(C(=O)c3ccc(S(C)(=O)=O)cc3)C(c3ccc(C)cc3)C2)cc1 (stereo not drawn) [Compound 18g, (3,5-Bis(4-tolyl)-4,5-dihydro-1H-pyrazol-1-yl)(4-(methylsulfonyl)phenyl)methanone]	3.054	23	0.496 ± 0.016	4.386	4.07 ± 0.18	10.4 ± 0.68	56	66	80	43	40	43.52	29.09	13.69	27.39	S/G2 phase	4.47	7.84	13.69	1.38	GI% (HT29): 15%; GI% (MCF7): 52%; GI% (UO-31): 26%; Casp3 gene expression (fold change) [4]: 3.945 fold change; GI% (NCI-H522): 73%; PCE (positive cytotoxic effect: ratio of cell lines with growth inhibition >10% to total cell lines) (59 cancer cell lines): 48/59; MG% (mean growth percent) (59 cancer cell lines): 72.98%; Mean GI% Breast cancer (59 cancer cell lines): 31%; Mean GI% Leukemia (59 cancer cell lines): 63%; GI% (BT-549): 27%; GI% (EKVX): 25%; Bcl2 gene expression (fold change) [5]: 0.252 fold change; GI% (HOP-62): 26%; GI% (A549/ATCC): 43%; IC50 (COX-2): 94 ± 4.41 µM; IC50 [6]: 11.7 ± 0.96 µM; GI% (T-47D): 32%
